The source of these data is patent US11090305B2, “Methods and compositions to reduce oxidative stress” (University of Massachusetts, priority 2009, dated 2021).

The test system of one assay is p38 MAPK. Nature of the assay: Phosphorylated (activated) p38 MAPK expression in HSCs. It counts as in vivo, mouse. From the text: Activation of p38 MAPK by ROS has been reported in Atm^−/− mice and this event participates in ROS-induced loss of HSC quiescence. Expression of p38 MAPK was similar in HSCs from ApoE^−/−, HCD, and WT mice. However, expression of activated (phosphorylated) p38 MAPK is greater in HSCs from hypercholesterolemic mice than from WT mice (FIGS. 44A and 44B). FIGS. 44A-44C show p38 MAPK activation is greater in HSC from hypercholesterolemic mice. […] Neither treatment affected the outcome of competitive transplant with WT HSCs. m±sd, n=5 mice per group, *p<0.05 vs. WT, † p<0.05 vs. ApoE.

In assay [1] the test system is hypercholesterolemic mice (ApoE^−/−, HCD). The assay is described as follows: Azoxymethane (AOM)-induced colorectal neoplasia. Further details: species or system mouse. The settings on record: in vivo pretreatment. An excerpt: All mice were purchased from Jackson Laboratories (Bar Harbor, Me.) and were maintained in the mouse barrier facility. Care of mice was in accordance with NIH guidelines and the Institutional Animal Care and Use Committee of the University of Massachusetts Medical School approved all protocols. Mice were kept on a 12 hr day/night schedule and were allowed free access to chow and water. ApoE^−/− and WT mice were fed standard mouse chow (5.4 g fat/100 g diet, 0% cholesterol). HCD mice were fed a diet with 10 g fat/100 g diet, […] (Research Diets, New Brunswick, N.J.). […] Azoxymethane (AOM) was given by intraperitoneal injection (10 mg/Kg weekly for 3 weeks); 1% dextran sodium sulfate was added to the drinking water for the Pt week after AOM treatment. The colon and rectum was removed en bloc from each mouse and the number of polyps was identified using a dissecting microscope. Each polyp was frozen in OCT at −80° C. and cryosections (10 μM) cut. […] (A) Total serum cholesterol measured under fasting conditions (16 hr) was greater in ApoE^−/− and HCD groups than in the WT group. […] Ten weeks later, the incidence and number of polyps were determined in the colon and rectum, and a pathologist blinded to study condition assigned each polyp a histological grade (hyperplasia, grade 1, 2, or 3 adenoma, or carcinoma). […]

In another assay the test system is Notch1. The assay is described as follows: Notch1 expression in HSCs, early T progenitor cells and thymocytes (Example 6). It counts as in vivo, mouse. The settings on record: hypercholesterolemic mice, 4 weeks. The method, then: (§1) Cells were stained with monoclonal antibodies conjugated to various fluoroprobes. These antibodies included: Notch1, cKit (2B8), Sca-1 (E13-161.7), CD4 (L3T4), CD8 (53-6.72), CD90.1, CD25, CD44, TCRβ, NK1.1, γδTCR, CD45.1, CD45.2. The lineage cocktail consisted of CD4, CD8, B220 (RA3-6B2), TER-119, Mac-1 (MI/70), and Gr-1 (RB6-8C5). All antibodies were purchased from BD Bioscience (San Diego, Calif.). FACS analysis was carried out on a FACS Diva.
The Notch signaling pathways are expressed extensively in the hematopoietic system. Notch signaling dominates the regulation of proliferation, self-renewal, and lineage commitment of HSCs in the bone marrow as well as their downstream differentiation and maturation in the thymus (23-28). Moreover, Notch1 appears to participate in the differentiation of the unique T cell subsets, NKT cells and γδT cells (29-32). In this context, the mechanistic basis between HSC oxidant stress and aberrant lineage specification toward NKT and γδT cells in hypercholesterolemic mice was evaluated by determining Notch expression in HSC, bone marrow T cell progenitors, and immature thymocytes. […] Notch1 expression was evaluated in HSCs, early T progenitor cells, and thymocytes differs between ApoE^−/− and WT mice. […] Notch1 expression also was evaluated in HSCs, early T progenitor cells, and thymocytes differs between HCD and WT mice. […]

For assay [2], the system named is bone marrow mononuclear cell population. The assay is described as follows: Lymphocyte lineage specification: pre-B and pro-T cells in bone marrow. More on the design: species or system mouse. The note with it: ApoE^−/− mice, in vivo treatment. The method, then: as §1
Hypercholesterolemia is associated with lymphocytosis, while induction of hypercholesterolemia in monkeys affects the rate of CD11b monocyte differentiation. […] FIGS. 46A-46C show lymphocyte lineage specification is altered in hypercholesterolemic mice. (A) The percentages of pre-B cells and pro-T cells in the bone marrow mononuclear cell population were lower and higher, respectively, in ApoE^−/− than in WT mice. These changes were reversed by in vivo treatment of ApoE mice with NAC. (B) The percentages of pre-B cells and pro-T cells in the bone marrow mononuclear cell population were lower and higher, respectively, in HCD than in WT mice. (C) The percentage of mature B cells was lower and that of mature T cells higher in the peripheral blood mononuclear cell population from ApoE mice than from WT mice. The percentage of NKT cells was also less in ApoE mice.

Regarding `CC(=O)N[C@@H](CS)C(=O)O` [NAC, N-acetylcysteine], the “expression of activated p38 in HSCs” value in the assay on p38 MAPK (ApoE^−/− mice, in vivo treatment) is listed as “significantly reduced expression of activated p38 in ApoE^−/− HSCs”; in the assay with p38 MAPK (WT mice), “had no effect on activated p38 expression in WT HSCs”. In addition, in assay [1] (ApoE^−/− and HCD mice), the “histological severity of AOM-induced colorectal polyps” value is given as “these effects were reversed by in vivo pretreatment with NAC”. Besides, the “susceptibility to AOM-induced neoplasia” value in assay [1] (hypercholesterolemic mice) is given as “reduced susceptibility to AOM-induced neoplasia”. Further, the “differences in Notch1 expression in HSCs, T progenitor cells and thymocytes” value in the assay on Notch1 is recorded as “significantly reversed by in vivo treatment with NAC for 4 weeks”. Moreover, the “percentages of pre-B cells and pro-T cells in bone marrow” value in assay [2] is on record as “reversed these effects”.
